Earlier results on one compound are cited in patent US20140056862A1, “NUTRITIONAL COMPOSITIONS HAVING ALPHA-HICA AND ALPHA-KETOGLUTARATE” (Nestec S.A., priority 2011, published 2014).

The subject of this data set is intestinal mammalian target of rapamycin (mTOR); intestinal villi and crypts. Conditions: piglet stressed with LPS.

Structures are written as SMILES.

On to `O=C(O)CCC(=O)C(=O)O` [AKG, α-ketoglutarate], for which the crypt depth entry is “reduced” and the villous height entry is “increased”. Besides, the “phosphorylation of intestinal mammalian target of rapamycin (mTOR)” value (leading to increased protein synthesis and anti-inflammatory responses) was “increased”.
